# Assay results as given in ChEMBL document CHEMBL5331068, “Briarane-type diterpenoids, the inhibitors of osteoclast formation by interrupting Keap1-Nrf2 interaction and activating Nrf2 pathway” (Eur J Med Chem, 2023).
# Calls of active or inactive are those of the source. The calls are words filed in the database; no cut-off is given here.
# Columns and labels:
# [1] = molecular target: T1, Nuclear factor erythroid 2-related factor 2 (Mus musculus) (UniProt Q60795); test: Stabilization of Nrf2 in mouse RAW264.7 cells assessed as increase in Nrf2 protein level preincubated with compound for 6 hrs followed by CHX addition and measured after 45 mins by Western blot analysis; format: cell-based; conditions: time 405.0 min
# T1 sequence (whole entry): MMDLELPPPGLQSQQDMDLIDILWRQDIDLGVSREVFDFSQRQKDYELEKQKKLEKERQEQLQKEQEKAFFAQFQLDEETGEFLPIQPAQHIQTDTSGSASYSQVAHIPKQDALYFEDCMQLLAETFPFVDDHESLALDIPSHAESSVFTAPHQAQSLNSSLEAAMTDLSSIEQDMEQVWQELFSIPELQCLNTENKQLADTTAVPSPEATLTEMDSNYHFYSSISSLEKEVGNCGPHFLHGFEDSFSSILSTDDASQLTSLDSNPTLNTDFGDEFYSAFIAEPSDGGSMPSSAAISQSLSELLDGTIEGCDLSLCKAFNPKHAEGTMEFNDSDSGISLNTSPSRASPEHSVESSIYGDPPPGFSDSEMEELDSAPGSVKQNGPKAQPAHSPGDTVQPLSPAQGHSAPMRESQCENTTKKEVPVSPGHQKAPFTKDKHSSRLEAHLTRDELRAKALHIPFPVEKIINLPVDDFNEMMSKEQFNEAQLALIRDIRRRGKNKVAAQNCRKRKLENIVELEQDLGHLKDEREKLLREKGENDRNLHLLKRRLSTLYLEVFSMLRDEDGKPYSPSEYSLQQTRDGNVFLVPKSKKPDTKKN
# BMDM [2] = test: Anti-osteoclastogenesis activity in RANKL-induced C57BL/6 mouse BMDM cells assessed as downregulation of TRAP mRNA expression at 5 to 10 uM by qRT-PCR analysis; format: functional, cell-based; conditions: dose 5-10 µM
# BMDM [3] = test: Anti-osteoclastogenesis activity in RANKL-induced C57BL/6 mouse BMDM cells assessed as suppression of late stage osteoclast differentiation at 10 uM incubated from day 3 to day 5 in the presence of M-CSF by TRAP-staining based microscopic analysis; format: functional, cell-based; conditions: time 2.0 day
# [4] = molecular target: T2, NF-kappa-B inhibitor alpha (Mus musculus) (UniProt Q9Z1E3); test: Inhibition of RANKL-induced IkappaBalpha phosphorylation in C57BL/6 mouse BMDM cells transfected with Nrf2 siRNA at 10 uM incubated for 60 mins by Western blot analysis; format: cell-based
# T2 sequence (whole entry): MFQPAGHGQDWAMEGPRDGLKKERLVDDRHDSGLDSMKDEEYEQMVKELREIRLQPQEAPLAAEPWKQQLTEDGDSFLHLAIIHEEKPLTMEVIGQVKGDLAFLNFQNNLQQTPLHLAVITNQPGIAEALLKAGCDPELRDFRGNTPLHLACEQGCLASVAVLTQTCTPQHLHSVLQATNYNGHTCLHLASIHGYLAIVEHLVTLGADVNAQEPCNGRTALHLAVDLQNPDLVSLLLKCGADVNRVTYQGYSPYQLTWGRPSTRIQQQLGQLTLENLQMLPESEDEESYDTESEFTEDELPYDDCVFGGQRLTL
# RAW264.7 [5] = test: Anti-osteoclastogenesis activity in RANKL-induced mouse RAW264.7 cells transfected with Nrf2 siRNA assessed as increase in NFATc1 expression level incubated for 3 days by Western blot analysis; format: functional, cell-based; conditions: time 3.0 day
# BMDM [6] = test: Inhibition of osteoclast migration in RANKL-induced C57BL/6 mouse BMDM cells at 10 uM incubated for 48 hrs in the presence of M-CSF by TRAP staining based wound healing assay; format: functional, cell-based
# BMDM [7] = test: Anti-osteoclastogenesis activity in RANKL-induced C57BL/6 mouse BMDM cells assessed as downregulation of MMP-9 mRNA expression at 5 to 10 uM by qRT-PCR analysis; format: functional, cell-based; conditions: dose 5-10 µM
# BMDM [8] = test: Anti-osteoclastogenesis activity in RANKL-induced C57BL/6 mouse BMDM cells assessed as decrease in bone resorption pit number incubated for 10 days in the presence of M-CSF by inverted microscopic analysis; format: functional, cell-based; conditions: dose 1-10 µM, time 10.0 day
# [9] = molecular target: Transcription factor p65 (Mus musculus) (UniProt Q04207); test: Inhibition of RANKL-induced p65 NF-kappaB phosphorylation in C57BL/6 mouse BMDM cells incubated for 60 mins by Western blot analysis; format: cell-based
# Chain of Transcription factor p65 (Mus musculus) (Q04207 whole entry): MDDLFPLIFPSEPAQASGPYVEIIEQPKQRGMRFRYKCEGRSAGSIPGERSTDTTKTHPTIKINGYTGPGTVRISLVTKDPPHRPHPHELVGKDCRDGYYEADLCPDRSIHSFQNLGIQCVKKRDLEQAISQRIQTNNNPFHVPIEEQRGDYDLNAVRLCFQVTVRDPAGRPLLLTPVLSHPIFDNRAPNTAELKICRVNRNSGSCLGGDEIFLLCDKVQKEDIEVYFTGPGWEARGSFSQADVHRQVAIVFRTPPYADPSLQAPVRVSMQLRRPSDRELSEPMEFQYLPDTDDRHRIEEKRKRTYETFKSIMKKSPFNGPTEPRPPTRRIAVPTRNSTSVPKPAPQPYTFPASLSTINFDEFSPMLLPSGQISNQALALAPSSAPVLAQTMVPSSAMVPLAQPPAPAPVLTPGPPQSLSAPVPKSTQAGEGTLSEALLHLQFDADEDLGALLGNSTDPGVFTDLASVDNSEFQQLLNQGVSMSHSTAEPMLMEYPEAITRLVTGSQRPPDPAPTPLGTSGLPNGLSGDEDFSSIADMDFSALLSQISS
# [10] = Inhibition of RANKL-induced ERK phosphorylation in C57BL/6 mouse BMDM cells transfected with Nrf2 siRNA at 10 uM incubated for 60 mins by Western blot analysis; format: cell-based
# BMDM [11] = test: Anti-osteoclastogenesis activity in RANKL-induced C57BL/6 mouse BMDM cells assessed as elimination of TRAP-positive multinucleated osteoclast incubated for 7 days in the presence of M-CSF by TRAP-staining based microscopic analysis; format: functional, cell-based; conditions: dose 1-10 µM, time 7.0 day
# [12] = molecular target: MAP kinase p38 (Mus musculus) (UniProt P47811+O08911+Q9WUI1+Q9Z1B7); test: Inhibition of RANKL-induced p38 MAPK phosphorylation in C57BL/6 mouse BMDM cells transfected with Nrf2 siRNA at 10 uM incubated for 60 mins by Western blot analysis; format: cell-based
# BMDM [13] = test: Anti-osteoclastogenesis activity in RANKL-induced C57BL/6 mouse BMDM cells assessed as increase in NQO-1 expression at 5 to 10 uM in the presence of M-CSF by Western blot analysis; format: functional, cell-based; conditions: dose 5-10 µM
# BMDM [14] = test: Anti-osteoclastogenesis activity in RANKL-induced C57BL/6 mouse BMDM cells assessed as inhibition of c-Fos protein level at 5 to 10 uM in the presence of M-CSF by Western blot analysis; format: functional, cell-based; conditions: dose 5-10 µM
# RAW264.7 [15] = test: Anti-osteoclastogenesis activity in RANKL-induced mouse RAW264.7 cells transfected with Nrf2 siRNA assessed as increase in HO-1 expression level incubated for 3 days by Western blot analysis; format: functional, cell-based; conditions: time 3.0 day
# [16] = molecular target: Kelch-like ECH-associated protein 1 (Mus musculus) (UniProt Q9Z2X8); test: Binding affinity to Keap1 in mouse RAW264.7 cells assessed as thermal stability at 20 uM preincubated with compound for 1 hrs followed by heating at 37 to 65 degreeC for 3 mins by CETSA; format: cell-based; conditions: time 63.0 min
# Chain of Kelch-like ECH-associated protein 1 (Mus musculus) (Q9Z2X8 whole entry): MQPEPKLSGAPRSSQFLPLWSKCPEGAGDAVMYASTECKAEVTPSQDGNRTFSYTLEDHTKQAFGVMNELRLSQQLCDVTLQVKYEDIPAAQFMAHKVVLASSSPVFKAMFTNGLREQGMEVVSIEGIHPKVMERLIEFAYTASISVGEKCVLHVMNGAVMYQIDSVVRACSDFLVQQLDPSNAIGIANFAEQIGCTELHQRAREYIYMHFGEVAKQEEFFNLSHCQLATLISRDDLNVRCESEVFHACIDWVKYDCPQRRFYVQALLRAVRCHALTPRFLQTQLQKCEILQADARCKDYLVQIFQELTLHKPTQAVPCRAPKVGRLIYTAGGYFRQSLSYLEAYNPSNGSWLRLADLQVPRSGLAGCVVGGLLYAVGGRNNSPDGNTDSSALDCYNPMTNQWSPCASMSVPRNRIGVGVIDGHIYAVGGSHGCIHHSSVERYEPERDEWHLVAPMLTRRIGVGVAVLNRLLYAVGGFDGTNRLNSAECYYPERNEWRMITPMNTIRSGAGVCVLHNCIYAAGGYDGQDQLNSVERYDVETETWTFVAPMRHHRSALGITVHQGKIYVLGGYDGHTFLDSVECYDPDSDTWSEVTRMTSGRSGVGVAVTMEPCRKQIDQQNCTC
# RAW264.7 [17] = test: Anti-osteoclastogenesis activity in RANKL-induced mouse RAW264.7 cells transfected with Nrf2 siRNA assessed as increase in NQO-1 expression level incubated for 3 days by Western blot analysis; format: functional, cell-based; conditions: time 3.0 day
# BMDM [18] = test: Anti-osteoclastogenesis activity in RANKL-induced C57BL/6 mouse BMDM cells assessed as decrease in bone resorption pit area incubated for 10 days in the presence of M-CSF by inverted microscopic analysis; format: functional, cell-based; conditions: dose 1-10 µM, time 10.0 day
# BMDM [19] = test: Anti-osteoclastogenesis activity in RANKL-induced C57BL/6 mouse BMDM cells assessed as increase in nuclear Nrf2 level at 5 to 10 uM in the presence of M-CSF by Western blot analysis; format: functional, cell-based; conditions: dose 5-10 µM
# [20] = molecular target: Kelch-like ECH-associated protein 1/Nuclear factor erythroid 2-related factor 2 (Mus musculus) (UniProt Q60795+Q9Z2X8); test: Disruption of Nrf2 -Keap1 protein-protein interaction in RANKL-induced C57BL/6 mouse BMDM cells incubated for 24 hrs by Western blot based co-immunoprecipitation analysis; format: cell-based
# Chain of Kelch-like ECH-associated protein 1/Nuclear factor erythroid 2-related factor 2 (Mus musculus) (Q9Z2X8 whole entry, looked up, one chain of several): as the sequence (Q9Z2X8 whole entry) above
smiles,measurement,setting,value
C=C1[C@H]2O[C@]3([C@@H](C)C(=O)O[C@H]3[C@H]1Cl)[C@@H](OC(C)=O)[C@H]1[C@]3(CC[C@H](OC(C)=O)[C@]1(C)[C@@H](OC(C)=O)[C@@H]2OC(C)=O)CO3,Activity,[1],Active
same,Activity,BMDM [2],Active
same,Activity,BMDM [3],Active
same,inhibition,[4],inactive
same,Activity,RAW264.7 [5],inactive
same,inhibition,BMDM [6],Active
same,Activity,BMDM [7],Active
same,Activity,BMDM [8],Dose-Dependent Effect
same,inhibition,[9],Active
same,inhibition,[10],inactive
same,Activity,BMDM [11],Dose-Dependent Effect
same,inhibition,[12],inactive
same,Activity,BMDM [13],Active
same,Activity,BMDM [14],Active
same,Activity,RAW264.7 [15],inactive
same,Activity,[16],Active
same,Activity,RAW264.7 [17],inactive
same,Activity,BMDM [18],Dose-Dependent Effect
same,Activity,BMDM [19],Active
same,Activity,[20],Active
